Measured values published in patent US20220118117A1, “MODULATORS OF METABOTROPIC GLUTAMATE RECEPTOR 4” (The General Hospital Corporation, priority 2019, published 2022).
pEC50: −log10 of the molar value. Several values for one entry are separate records, joined by “and”; a condition that tells them apart may be missing. Equal entries are not always repeated. Where two headings read alike, the source gives them in different places.

What was measured:
mGluR4 [1] = biological target: T1, mGluR4 (Homo sapiens, UniProt Q14833); assay: GloSensor cAMP biosensor assay, mGluR4 PAM and agonist activity; type: cell-based; set-up: expressed in transfected cells
T1 sequence (Q14833 33-912): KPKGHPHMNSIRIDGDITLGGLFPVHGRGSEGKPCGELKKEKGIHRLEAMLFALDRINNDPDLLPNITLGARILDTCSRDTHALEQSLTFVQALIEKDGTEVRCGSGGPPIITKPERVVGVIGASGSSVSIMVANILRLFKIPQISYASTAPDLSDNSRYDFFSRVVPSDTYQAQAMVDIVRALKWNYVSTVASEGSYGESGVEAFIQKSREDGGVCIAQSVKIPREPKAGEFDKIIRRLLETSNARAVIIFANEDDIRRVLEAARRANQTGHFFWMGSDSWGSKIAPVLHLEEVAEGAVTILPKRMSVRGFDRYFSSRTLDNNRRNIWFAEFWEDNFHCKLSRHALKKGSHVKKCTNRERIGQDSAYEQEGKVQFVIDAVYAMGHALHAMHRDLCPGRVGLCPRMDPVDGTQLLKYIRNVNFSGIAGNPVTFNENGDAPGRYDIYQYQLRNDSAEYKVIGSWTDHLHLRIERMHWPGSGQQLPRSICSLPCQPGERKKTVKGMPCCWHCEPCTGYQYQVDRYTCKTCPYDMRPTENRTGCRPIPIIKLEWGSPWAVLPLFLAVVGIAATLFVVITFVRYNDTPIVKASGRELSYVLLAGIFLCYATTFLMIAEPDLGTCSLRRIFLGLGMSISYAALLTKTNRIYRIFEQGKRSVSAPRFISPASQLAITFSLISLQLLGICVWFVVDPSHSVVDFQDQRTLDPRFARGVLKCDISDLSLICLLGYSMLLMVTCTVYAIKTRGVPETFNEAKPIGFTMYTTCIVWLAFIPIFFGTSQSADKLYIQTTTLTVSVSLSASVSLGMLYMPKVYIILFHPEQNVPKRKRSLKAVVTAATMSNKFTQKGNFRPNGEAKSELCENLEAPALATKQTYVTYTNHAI
Procedure: Cell Culture. HEK-293 cells were maintained with complete Dulbecco's modified Eagle's medium (DMEM), which was composed of 10% fetal bovine serum (FBS), 2 mM L-glutamine, 100 units/mL penicillin G, 100 μg/mL streptomycin at 37° C. in the presence of 5% CO2. HEK-293 stable cell lines with tetracycline inducible expression of mGluR1, mGluR2, mGluR4, mGluR6 or mGluR8 were maintained with complete DMEM with Hygromycin B (100 μg/mL), Blasticidin (15 μg/mL) at 37° C. in the presence of 5% CO2.
cAMP assay. The Gi/o coupled receptors (mGluR2, mGluR3, mGluR4, mGluR6 and mGluR8) were tested using cAMP assay. Promega's split luciferase based GloSensor cAMP biosensor technology was used in determining Gi-GPCR mediated cAMP production in live cells. On the cells stably expressing mGluR2, mGluR3, mGluR4, mGluR6 or mGluR8, GloSensor cAMP DNA construct was transfected overnight. Cells were seeded into PLL coated 384-well white clear bottom cell culture plates with complete BME Buffer with Tetracycline (1 μg/mL) at a density of 20,000 cells for another 24 h. The cell medium was removed and then 20 μL of buffer was loaded. […] Luminescence was counted in a Trilux luminescence counter. Data were analyzed with Prizm 5.0 (GraphPad software).
Secondary assays—Dose-response assays. […] For each compound, the results from four replicates were averaged and then either EC50 or IC50 values were calculated by non-linear regression using the 4-parameter logistic equation. […]
In sum, the mGluR4 PAM activity was determined using Promega's split luciferase based GloSensor cAMP biosensor assay (refs. 41-42). mGluR4 is coupling to Gαi protein to inhibit adenylate cyclase, which converts ATP to cAMP, which plays an important role in many signal transduction pathways. […] The mGluR4 PAM activity of 15 was evaluated in presence of EC20 concentration of agonist (1 μM L-SOP) by measuring changes in intracellular cAMP concentration.

mGluR4 [2] = biological target: T1, mGluR4; assay: competitive binding (radioligand replacement) assay with [3H]4 in mGluR4 transfected CHO cells; set-up: expressed in transfected cells; host or cells: CHO cells; details: 2 nM [3H]4, read-out: IC50 (nM), affinity to mGluR4
Procedure: In Vitro mGluR4 Binding Assay. CHO cells expressing mGluR4 were used for all binding assay protocols. For competitive binding, 2 nM of [^3H]4 was used together with increased concentrations of test compounds ranging from 0.01 nM to 10 μM. Each test tube contained 50 000 freshly harvested CHO cells expressing mGluR4 cultured in HAMs cell culture medium with 100 nM of glutamate, penicillin-streptomycin (100 units), and 1 mM G418. [3H]4 (2 nM) was added to the cell extract with and without test compounds on ice and then incubated for 30 min at room temperature. Samples were centrifuged at 1200 rpm for 10 min at 4° C. and washed three times with a cold cell culture medium as a washing buffer. Samples were lysed by adding 100 μL of 0.5% NaOH and heated using a heating block (56° C., 30 min). Samples were cooled with an ice bath and transferred to Solvent-Saver scintillation vials (VWR International LLC.). To obtain binding parameters, the scintillation liquid (PerkinElmer, Optima Gold) was added prior to counting with a scintillation counter (Packard TriCarb Model, 1 min/vial). Nonspecific binding was determined using 10 μM of nonradioactive test compound, and specific binding was determined by extracting the nonspecific binding from total binding. All measurements were done in triplicate and analyzed with GraphPad Prism software (GraphPad Software Inc.).

microsomal stability = type: in vitro ADME, Sprague-Dawley rat; details: rat liver microsomes, NADPH
Procedure: First, Sprague-Dawley rat liver microsomes (0.5 mg/mL, Sigma-Aldrich, No. M9066) was incubated with PBS (50 mM, pH=7.4) in a reaction tube at 37° C. for 3 min. To the reaction tube were added the test compound (2 μM) and then cofactor, NADPH (1 mM), to start the reaction. The mixture was shaken in a water bath at 37° C. At different time points (0, 5, 10, 15, 30 min), aliquots (50 μL) were removed and added to 100 μl of cold acetonitrile with internal standard (25 μM) to quench the reaction. The precipitated material was by centrifugation (10,000×g, 10 min, 4° C.), and the supernatant was analyzed by RP-HPLC (Column: Phenomenex Luna© 5 μm, Cis, 100 Å, 250×4.6 mm). The RP-HPLC was carried out by using a 15-min gradient method: eluent A: 0.1% formic acid/H2O; eluent B: 0.1% formic acid/CH3CN; gradient: […]; 5% B to 95% B from 1 to 9 min, 95% B from 9 to 12 min, 95% to 5% B from 12 to 13 min, 5% B from 13 to 15 min; flow rate at 0.7 mL/min.
The in peak area ratio (test compound peak area at a time point/peak area at 0 min time point) was plotted against time and the gradient of the line was determined. Subsequently, the half-life (t1/2) was calculated as 0.693/k, where the elimination rate constant k equals to −gradient. V (μL/mg) was obtained as a ratio of volume of incubation […]/protein in the incubation (mg). Finally, the intrinsic clearance (CLint) (μL/min/mg protein) was calculated as V*0.693/t1/2.

A pEC50 (mGluR4 [1]; agonist mode, cAMP assay, read-out: EC50, mGluR4 agonist activity) of 5.56, a pEC50 (mGluR4 [1]; in presence of EC20 concentration of agonist (1 μM L-SOP), read-out: EC50, mGluR4 PAM activity) of 6.49 and an IC50 (mGluR4 [2]) of 3.4 nM were found for `[2H]C([2H])(F)Sc1cc(NC(=O)c2ccccn2)ccc1Cl` [Compound 15, N-(4-Chloro-3-((fluoromethyl-d2)thio)phenyl)picolinamide] in this work. For the same compound, the “The microsome stability t1/2” value (microsomal stability) was 57.258 min and 57.3 min.
